Experimental findings from patent US7812022B2 (GlaxoSmithKline LLC, priority 2004, dated 2010) are described below.

One experiment has as its target T1, ErbB2 or EGFR.
T1 construct: enzymes purified from a baculovirus expression system; Reagent production was conducted essentially as described in Brignola, P. S., et al, (2002) J. Biol. Chem. 277(2): 1576-1585
As to the kind of experiment: ErbB family substrate phosphorylation enzyme assay (HTRF), Method A or Method B. It counts as biochemical. In short, it runs like this: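 Baculovirus-expressed EGFR or ErbB2 (0.8 or 10 nM in enzyme mix) phosphorylates biotinylated Peptide C with 20 µM ATP and 0.8 µM peptide (substrate-mix levels), MnCl2, pH 7.5. Reaction ran 90 min at 20 °C with EDTA stop and HTRF anti-phosphotyrosine read. Method A: enzyme added last; Method B: 1 h enzyme–compound preincubation.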

Experiment [1] deals with BT474 and HN5 tumor cell lines. As to the kind of experiment: Methylene blue growth inhibition assay (cellular Method A). Conditions: Homo sapiens, BT-474, 72 h, 3 days, read-out: Activity (Method): growth inhibition IC50 class. It is filed as cell-based, Human. In outline: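 Growth inhibition measured by methylene blue staining of biomass (OD 620) after 3 days' compound exposure at 37° C, final DMSO 0.3%. Cell lines: BT474 (10,000/well), HN5 (3,000/well) and Colo205, all in DMEM with 10% FBS; IC50 fitted by nonlinear regression against vehicle-treated wells.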

[2] abbreviates: Method B: enzyme mix pre-incubated with compound 1 hour at 20° C., started with substrate mix.
[3] abbreviates: Method A: substrate mix added first, reaction started with enzyme mix.

pIC50: −log10 of the molar value.

Take `O=C(Nc1cccc(-c2nn3c(C(F)(F)F)cccc3c2-c2ccnc(Nc3cccc(F)c3)n2)c1)c1c(F)cccc1F` [Example 153, N-[3-(3-{2-[3-Fluorophenylamino]-4-pyrimidinyl}-7-trifluoropyrazolo[1,5-b]pyridin-2-yl)phenyl]-2,6-difluorobenzamide]: the “Activity (Method): pIC50 class against ErbB2 or EGFR” value (“Activity (Method): pIC50 class” below) on ErbB2 or EGFR (setting [2]) is recorded as “+++ (B) (at least one pIC50 measurement of greater than 7 against either ErbB2 or EGFR)”. Besides, the pIC50 (usually −log10 of the IC50, conventionally taken in molar units) in experiment [1] is 6.00 to 7.00.

For `O=C(Nc1cccc(-c2nn3ccccc3c2-c2ccnc(Nc3ccc4c(c3)OCCO4)n2)c1)c1c(F)cccc1F` [Example 114, N-(3-{3-[2-(2,3-dihydro-1,4-benzodioxin-6-ylamino)-4-pyrimidinyl]pyrazolo[1,5-a]pyridin-2-yl}phenyl)-2,6-difluorobenzamide], the “Activity (Method): pIC50 class” value at ErbB2 or EGFR (setting [3]) is “+++ (A) (at least one pIC50 measurement of greater than 7 against either ErbB2 or EGFR)”. For the same molecule, in experiment [1], the negative logarithm of the IC50 (pIC50) is > 7.00.

`Cn1cccc1C(=O)Nc1cccc(-c2nn3ccccc3c2-c2ccnc(Nc3cccc(F)c3)n2)c1` [Example 82, N-[3-(3-{2-[(3-fluorophenyl)amino]-4-pyrimidinyl}-pyrazolo[1,5-a]pyridin-2-yl)phenyl]-1-methyl-1H-pyrrole-2-carboxamide]: on ErbB2 or EGFR (setting [2]), the “Activity (Method): pIC50 class” value was “+++ (B) (at least one pIC50 measurement of greater than 7 against either ErbB2 or EGFR)”. The negative logarithm of the IC50 (pIC50) in experiment [1] was 6.00 to 7.00.

Consider `CCS(=O)(=O)Cc1ccc(Nc2nccc(-c3c(-c4cccc(NC(=O)c5cc(F)ccc5F)c4)nn4ccccc34)n2)cc1` [Example 51, N-(3-{3-[2-({4-[(ethylsulfonyl)methyl]phenyl}amino)-4-pyrimidinyl]pyrazolo[1,5-a]pyridin-2-yl}phenyl)-2,5-difluorobenzamide], for which the “Activity (Method): pIC50 class” value on ErbB2 or EGFR (setting [3]) was “+++ (A) (at least one pIC50 measurement of greater than 7 against either ErbB2 or EGFR)”. Moreover, the pIC50 in experiment [1] is 6.00 to 7.00.

For the molecule `CS(=O)(=O)Cc1ccc(Nc2nccc(-c3c(-c4cccc(NC(=O)c5cc(F)ccc5F)c4)nn4ccccc34)n2)cc1` [Example 53, 2,5-Difluoro-N-(3-{3-[2-({4-[(methylsulfonyl)methyl]-phenyl}amino)-4-pyrimidinyl]pyrazolo[1,5-a]pyridin-2-yl}phenyl)benzamide], the “Activity (Method): pIC50 class” value at ErbB2 or EGFR (setting [3]) is given as “++ (A) (at least one pIC50 measurement greater than 6 against either ErbB2 or EGFR but no measurement greater than pIC50 of 7)”. The pIC50 in experiment [1] is 6.00 to 7.00.

As to `Cn1nnc2cc(C(=O)Nc3cccc(-c4nn5ccccc5c4-c4ccnc(Nc5cccc(F)c5)n4)c3)ccc21` [Example 26, N-[3-(3-{2-[(3-fluorophenyl)amino]-4-pyrimidinyl}pyrazolo[1,5-a]pyridin-2-yl)phenyl]-1-methyl-1H-1,2,3-benzotriazole-5-carboxamide], the “Activity (Method): pIC50 class” value at ErbB2 or EGFR (setting [2]) is “++ (B) (at least one pIC50 measurement greater than 6 against either ErbB2 or EGFR but no measurement greater than pIC50 of 7)”. Further, the pIC50 in experiment [1] is < 6.00.

In the case of `O=C(Nc1cccc(-c2nn3ccccc3c2-c2ccnc(Nc3cccc(F)c3)n2)c1)c1ccc(F)cc1F` [Example 19, 2,4-Difluoro-N-(3-{3-[2-(3-fluoro-phenylamino)-pyrimidin-4-yl]-pyrazolo[1,5-a]pyridin-2-yl}-phenyl)-benzamide], the “Activity (Method): pIC50 class” value on ErbB2 or EGFR (setting [2]) is “+++ (B) (at least one pIC50 measurement of greater than 7 against either ErbB2 or EGFR)”. For the same molecule, the pIC50 in experiment [1] was 6.00 to 7.00.

Consider `S=C(Nc1cccc(-c2nn3ccccc3c2-c2ccnc(Nc3ccc4c(c3)OCCO4)n2)c1)c1ccccc1Cl` [Example 8, 2-Chloro-N-(3-{3-[2-(2,3-dihydro-benzo[1,4]dioxin-6-ylamino)-pyrimidin-4-yl]-pyrazolo[1,5-a]pyridin-2-yl}-phenyl)-thiobenzamide], for which the “Activity (Method): pIC50 class” value on ErbB2 or EGFR (setting [3]) is “++ (A) (at least one pIC50 measurement greater than 6 against either ErbB2 or EGFR but no measurement greater than pIC50 of 7)”. In experiment [1], the pIC50 was 6.00 to 7.00.

As for `O=C(Nc1cccc(-c2nn3ccccc3c2-c2ccnc(Nc3cccc(F)c3)n2)c1)c1ccc(F)cc1` [Example 15, 4-Fluoro-N-(3-{3-[2-(3-fluoro-phenylamino)-pyrimidin-4-yl]-pyrazolo[1,5-a]pyridin-2-yl}-phenyl)-benzamide], at ErbB2 or EGFR (setting [2]), the “Activity (Method): pIC50 class” value is reported as “+++ (B) (at least one pIC50 measurement of greater than 7 against either ErbB2 or EGFR)”. Besides, the negative logarithm of the IC50 (pIC50) in experiment [1] was 6.00 to 7.00.

On to `O=C(Nc1cccc(-c2nn3ccccc3c2-c2ccnc(Nc3ccc(Nc4ccccc4)cc3)n2)c1)c1c(F)cccc1F` [Example 96], for which the “Activity (Method): pIC50 class” value at ErbB2 or EGFR (setting [3]) is “++ (A) (at least one pIC50 measurement greater than 6 against either ErbB2 or EGFR but no measurement greater than pIC50 of 7)”. Moreover, the negative logarithm of the IC50 (pIC50) in experiment [1] is 6.00 to 7.00.

As for `COc1cccc2c(-c3ccnc(Nc4cccc(C(F)(F)F)c4)n3)c(-c3cccc(NC(=O)c4c(F)cccc4F)c3)nn12` [Example 158, 2,6-Difluoro-N-{3-[7-methoxy-3-(2-{[3-(trifluoro-methyl)phenyl]amino}pyrimidin-4-yl)pyrazolo[1,5-a]pyridin-2-yl]phenyl}benzamide], the “Activity (Method): pIC50 class” value at ErbB2 or EGFR (setting [3]) is “++ (A) (at least one pIC50 measurement greater than 6 against either ErbB2 or EGFR but no measurement greater than pIC50 of 7)”. In addition, the pIC50 in experiment [1] is 6.00 to 7.00.

On to `O=C(Nc1cccc(-c2nn3ccccc3c2-c2ccnc(Nc3ccon3)n2)c1)c1c(F)cccc1F` [Example 85, 2,6-Difluoro-N-(3-{3-[2-(3-isoxazolylamino)-4-pyrimidinyl]pyrazolo[1,5-a]pyridin-2-yl}phenyl)benzamide], for which the “Activity (Method): pIC50 class” value on ErbB2 or EGFR (setting [3]) is “+++ (A) (at least one pIC50 measurement of greater than 7 against either ErbB2 or EGFR)”. Further, in experiment [1], the negative logarithm of the IC50 (pIC50) is 6.00 to 7.00.

As for `O=C(Nc1cccc(-c2nn3ccccc3c2-c2ccnc(Nc3cccc(F)c3)n2)c1)c1cccnc1` [Example 66, N-[3-(3-{2-[(3-fluorophenyl)amino]-4-pyrimidinyl}pyrazolo[1,5-a]pyridin-2-yl)phenyl]-3-pyridinecarboxamide], the “Activity (Method): pIC50 class” value at ErbB2 or EGFR (setting [2]) was “++ (B) (at least one pIC50 measurement greater than 6 against either ErbB2 or EGFR but no measurement greater than pIC50 of 7)”. Moreover, in experiment [1], the negative logarithm of the IC50 (pIC50) is 6.00 to 7.00.

Take `Nc1cccc(C(=O)Nc2cccc(-c3nn4ccccc4c3-c3ccnc(Nc4ccccc4)n3)c2)c1` [Example 143, 3-Amino-N-(3-{3-[2-(phenylamino)-4-pyrimidinyl]pyrazolo[1,5-a]pyridin-2-yl}phenyl)benzamide]: the “Activity (Method): pIC50 class” value on ErbB2 or EGFR (setting [3]) is listed as “+++ (A) (at least one pIC50 measurement of greater than 7 against either ErbB2 or EGFR)”. The pIC50 in experiment [1] was 6.00 to 7.00.

In the case of `Cc1ccsc1C(=O)Nc1cccc(-c2nn3ccccc3c2-c2ccnc(Nc3ccccc3)n2)c1` [Example 145, 3-Methyl-N-(3-{3-[2-(phenylamino)-4-pyrimidinyl]pyrazolo[1,5-a]pyridin-2-yl}phenyl)-2-thiophenecarboxamide], the “Activity (Method): pIC50 class” value at ErbB2 or EGFR (setting [3]) is listed as “+++ (A) (at least one pIC50 measurement of greater than 7 against either ErbB2 or EGFR)”. For the same molecule, the pIC50 in experiment [1] was > 7.00.
